What was measured:
Acinetobacter baumannii [1] = assay: Inhibition of […] biofilm formation at 500 uM after 24 hrs by crystal violet reporter assay; assay type: functional
Acinetobacter baumannii [2] = assay: Inhibition of […] biofilm formation after 24 hrs by crystal violet reporter assay; assay type: functional, organism-based
Acinetobacter baumannii [3] = assay: Inhibition of […] biofilm dispersion after 24 hrs by crystal violet reporter assay; assay type: functional, organism-based

Compound | inhibition at 500 µM (Acinetobacter baumannii [1]) [%] | IC50 (Acinetobacter baumannii [2]) [µM] | EC50 (Acinetobacter baumannii [3]) [µM]
Cn1c(C(=O)NCCCc2c[nH]c(N)n2)nc(Br)c1Br | 50.7 | – | –
Nc1nc(CCCNC(=O)c2cc(Br)c(Br)n2-c2ccccc2)c[nH]1 | – | 97.7 | –
CCn1c(C(=O)NCCCc2c[nH]c(N)n2)cc(Br)c1Br | 10.3 | – | –
Cn1c(C(=O)NCCCc2c[nH]c(N)n2)cc(Br)c1Br [DIHYDROSVENTRIN] | > 99 | 110 | –
Nc1nc(CCCNC(=O)c2cc(Br)c(Br)n2Cc2ccccc2)c[nH]1 | – | 35.4 | –
Nc1nc(CCCNC(=O)c2cc(Br)c(Br)n2CCc2ccccc2)c[nH]1 | – | 40.7 | –
Nc1nc(CCCNC(=O)c2cc(Br)c(Br)n2-c2ccc(Br)cc2)c[nH]1 | – | 26.8 | 41.3
Nc1nc(CCCNC(=O)c2cc(Br)c(Br)n2C2CCCC2)c[nH]1 | – | 40.5 | –
COc1ccc(Cn2c(C(=O)NCCCc3c[nH]c(N)n3)cc(Br)c2Br)cc1 | – | 42.8 | –
